Measured values reported in patent US11071300B2, “Pesticidally active pyrazole derivatives” (SYNGENTA PARTICIPATIONS AG, priority 2017, dated 2021).

How the values were obtained:
Type in all cases: in vivo
Spodoptera littoralis = Spodoptera littoralis (Egyptian cotton leaf worm) leaf disc test; details: foliar, 72 h, application rate 200 ppm, cotton leaf discs sprayed, L1 larvae, 3 days after infestation, read-out: control (at least one of mortality, anti-feedant effect, growth inhibition)
Method in brief: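 Cotton leaf discs on agar were sprayed with aqueous dilutions of 10′000 ppm DMSO stocks, dried and infested with five L1 larvae. Mortality, anti-feedant effect and growth inhibition were scored against untreated samples 3 days after infestation. Control = any of these higher than untreated.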

Plutella xylostella = Plutella xylostella (diamond back moth) artificial diet test; details: 120 h, application rate 200 ppm, artificial diet, L2 larvae, 5 days after infestation, read-out: control (mortality and growth inhibition)
Description: Plutella xylostella (Diamond Back Moth):
(§1) 24-well microtiter plates with artificial diet were treated with aqueous test solutions prepared from 10′000 ppm DMSO stock solutions by pipetting. After drying, the plates were infested with L2 larvae (10 to 15 per well). The samples were assessed for mortality and growth inhibition in comparison to untreated samples 5 days after infestation.

Tetranychus urticae = Tetranychus urticae (two-spotted spider mite) leaf disc test; details: foliar, 192 h, application rate 200 ppm, bean leaf discs sprayed, 8 days after infestation, read-out: control (mortality on mixed population, mobile stages)
Description: Tetranychus urticae (Two-Spotted Spider Mite):
Bean leaf discs on agar in 24-well microtiter plates were sprayed with aqueous test solutions prepared from 10′000 ppm DMSO stock solutions. After drying the leaf discs were infested with a mite population of mixed ages. The samples were assessed for mortality on mixed population (mobile stages) 8 days after infestation.

Euschistus heros = Euschistus heros (neotropical brown stink bug) soybean leaf test; details: 120 h, application rate 200 ppm, soybean leaves sprayed, N2 nymphs, 5 days after infestation, read-out: control (mortality and growth inhibition)
Description: Euschistus heros (Neotropical Brown Stink Bug):
Soybean leaves on agar in 24-well microtiter plates were sprayed with aqueous test solutions prepared from 10′000 ppm DMSO stock solutions. After drying the leaves were infested with N2 nymphs. The samples were assessed for mortality and growth inhibition in comparison to untreated samples 5 days after infestation.

Myzus persicae = Myzus persicae (green peach aphid) leaf disc test; details: foliar, 144 h, application rate 200 ppm, sunflower leaf discs sprayed, mixed ages, 6 DAT, read-out: control (mortality)
Description: Myzus persicae (Green Peach Aphid):
Sunflower leaf discs were placed on agar in a 24-well microtiter plate and sprayed with test solutions at an application rate of 200 ppm. After drying, the leaf discs were infested with an aphid population of mixed ages. After an incubation period of 6 DAT, samples were checked for mortality.

Diabrotica Balteata = assay: Diabrotica balteata (corn root worm) maize sprout test; details: 96 h, application rate 200 ppm, maize sprouts sprayed, L2 larvae, 4 days after infestation, read-out: control (mortality and growth inhibition)
Description: Diabrotica Balteata, (Corn Root Worm)
as §1, with “Maize sprouts, placed on an agar layer in 24-well” for “24-well”, “plates” for “plates with artificial diet”, “spraying.” for “pipetting.”, “(6” for “(10”, “10” for “15”, “4” for “5”

Thrips tabaci = Thrips tabaci (onion thrips) leaf disc test; details: foliar, 144 h, application rate 200 ppm, sunflower leaf discs sprayed, mixed ages, 6 days after infestation, read-out: control (mortality)
Description: Thrips tabaci (Onion Thrips):
Sunflower leaf discs were placed on agar in 24-well microtiter plates and sprayed with aqueous test solutions prepared from 10′000 ppm DMSO stock solutions. After drying the leaf discs were infested with a thrips population of mixed ages. The samples were assessed for mortality 6 days after infestation.

Cn1nc(OS(=O)(=O)C(F)(C(F)(F)F)C(F)(F)F)c(C(F)(F)F)c1-n1cc(-c2ccc(Cl)c(C(=O)N[C@H]3C[C@@H]3C#N)c2)cn1 (racemic) [Compound 69, (rac)-[5-[4-[4-chloro-3-[[(1S,2S)-2-cyanocyclopropyl]carbamoyl]phenyl]pyrazol-1-yl]-1-methyl-4-(trifluoromethyl)pyrazol-3-yl] 1,1,1,2,3,3,3-heptafluoropropane-2-sulfonate]
≥ 80%: percent control (mortality, anti-feedant effect or growth inhibition) at 200 ppm (Spodoptera littoralis) | mortality at 200 ppm (Plutella xylostella) | mortality at 200 ppm (Tetranychus urticae) | mortality at 200 ppm (Euschistus heros) | mortality at 200 ppm (Myzus persicae)

Cn1nc(OS(=O)(=O)C(F)(C(F)(F)F)C(F)(F)F)c(C(F)(F)F)c1-n1cc(-c2ccc(Cl)c(C(=O)NC3(C#N)CC3)c2)cn1 [Compound 2, [5-[4-[4-chloro-3-[(1-cyanocyclopropyl)carbamoyl]phenyl]pyrazol-1-yl]-1-methyl-4-(trifluoromethyl)pyrazol-3-yl] 1,1,1,2,3,3,3-heptafluoropropane-2-sulfonate]
≥ 80%: percent control (mortality, anti-feedant effect or growth inhibition) at 200 ppm (Spodoptera littoralis) | mortality at 200 ppm (Plutella xylostella) | mortality at 200 ppm (Diabrotica Balteata) | mortality at 200 ppm (Thrips tabaci) | mortality at 200 ppm (Tetranychus urticae) | mortality at 200 ppm (Euschistus heros) | mortality at 200 ppm (Myzus persicae)

Cn1nc(OS(=O)(=O)C(F)(C(F)(F)F)C(F)(F)F)c(C(F)(F)F)c1-n1cc(-c2ccc(Cl)c(C(=O)NC3CC3)c2)cn1 [Compound 5, [5-[4-[4-chloro-3-(cyclopropylcarbamoyl)phenyl]pyrazol-1-yl]-1-methyl-4-(trifluoromethyl)pyrazol-3-yl] 1,1,1,2,3,3,3-heptafluoropropane-2-sulfonate]
≥ 80%: percent control (mortality, anti-feedant effect or growth inhibition) at 200 ppm (Spodoptera littoralis) | mortality at 200 ppm (Plutella xylostella) | mortality at 200 ppm (Diabrotica Balteata) | mortality at 200 ppm (Thrips tabaci) | mortality at 200 ppm (Tetranychus urticae) | mortality at 200 ppm (Euschistus heros) | mortality at 200 ppm (Myzus persicae)

Cn1nc(OS(=O)(=O)C(F)(F)C(F)(F)Cl)c(C(F)(F)F)c1-n1cc(-c2ccc(Cl)c(C(=O)NC3CC3)c2)cn1 [Compound 9, [5-[4-[4-chloro-3-(cyclopropylcarbamoyl)phenyl]pyrazol-1-yl]-1-methyl-4-(trifluoromethyl)pyrazol-3-yl] 2-chloro-1,1,2,2-tetrafluoro-ethanesulfonate]
≥ 80%: percent control (mortality, anti-feedant effect or growth inhibition) at 200 ppm (Spodoptera littoralis) | mortality at 200 ppm (Plutella xylostella) | mortality at 200 ppm (Diabrotica Balteata) | mortality at 200 ppm (Thrips tabaci) | mortality at 200 ppm (Tetranychus urticae) | mortality at 200 ppm (Euschistus heros) | mortality at 200 ppm (Myzus persicae)

CCN(C(=O)c1cc(-c2cnn(-c3c(C(F)(F)F)c(OS(=O)(=O)C(F)(C(F)(F)F)C(F)(F)F)nn3C)c2)ccc1Cl)C1CC1 [Compound 12, [5-[4-[4-chloro-3-[cyclopropyl(ethyl)carbamoyl]phenyl]pyrazol-1-yl]-1-methyl-4-(trifluoromethyl)pyrazol-3-yl] 1,1,1,2,3,3,3-heptafluoropropane-2-sulfonate]
≥ 80%: percent control (mortality, anti-feedant effect or growth inhibition) at 200 ppm (Spodoptera littoralis) | mortality at 200 ppm (Plutella xylostella) | mortality at 200 ppm (Diabrotica Balteata) | mortality at 200 ppm (Thrips tabaci) | mortality at 200 ppm (Tetranychus urticae) | mortality at 200 ppm (Euschistus heros) | mortality at 200 ppm (Myzus persicae)

CN(C(=O)c1cc(-c2cnn(-c3c(C(F)(F)F)c(OS(=O)(=O)C(F)(C(F)(F)F)C(F)(F)F)nn3C)c2)ccc1Cl)C1(C#N)CC1 [Compound 18, [5-[4-[4-chloro-3-[(1-cyanocyclopropyl)-methyl-carbamoyl]phenyl]pyrazol-1-yl]-1-methyl-4-(trifluoromethyl)pyrazol-3-yl] 1,1,1,2,3,3,3-heptafluoropropane-2-sulfonate]
≥ 80%: percent control (mortality, anti-feedant effect or growth inhibition) at 200 ppm (Spodoptera littoralis) | mortality at 200 ppm (Plutella xylostella) | mortality at 200 ppm (Diabrotica Balteata) | mortality at 200 ppm (Thrips tabaci) | mortality at 200 ppm (Tetranychus urticae) | mortality at 200 ppm (Euschistus heros) | mortality at 200 ppm (Myzus persicae)

Cn1nc(OS(=O)(=O)C(F)(C(F)(F)F)C(F)(F)F)c(C(F)(F)F)c1-n1cc(-c2cnc(Cl)c(C(=O)NC3CC3)c2)cn1 [Compound 21, [5-[4-[6-chloro-5-(cyclopropylcarbamoyl)-3-pyridyl]pyrazol-1-yl]-1-methyl-4-(trifluoromethyl)pyrazol-3-yl] 1,1,1,2,3,3,3-heptafluoropropane-2-sulfonate]
≥ 80%: percent control (mortality, anti-feedant effect or growth inhibition) at 200 ppm (Spodoptera littoralis) | mortality at 200 ppm (Plutella xylostella) | mortality at 200 ppm (Diabrotica Balteata) | mortality at 200 ppm (Thrips tabaci) | mortality at 200 ppm (Tetranychus urticae) | mortality at 200 ppm (Euschistus heros) | mortality at 200 ppm (Myzus persicae)

CN(C(=O)c1cc(-c2cnn(-c3c(C(F)(F)F)c(OS(=O)(=O)C(F)(C(F)(F)F)C(F)(F)F)nn3C)c2)cnc1Cl)C1(C#N)CC1 [Compound 25, [5-[4-[6-chloro-5-[(1-cyanocyclopropyl)-methyl-carbamoyl]-3-pyridyl]pyrazol-1-yl]-1-methyl-4-(trifluoromethyl)pyrazol-3-yl] 1,1,1,2,3,3,3-heptafluoropropane-2-sulfonate]
≥ 80%: percent control (mortality, anti-feedant effect or growth inhibition) at 200 ppm (Spodoptera littoralis) | mortality at 200 ppm (Plutella xylostella) | mortality at 200 ppm (Diabrotica Balteata) | mortality at 200 ppm (Thrips tabaci) | mortality at 200 ppm (Tetranychus urticae) | mortality at 200 ppm (Euschistus heros) | mortality at 200 ppm (Myzus persicae)

Cn1nc(OS(=O)(=O)C(F)(C(F)(F)F)C(F)(F)F)c(C(F)(F)F)c1-c1cc(-c2ccc(Cl)c(C(=O)NC3CC3)c2)on1 [Compound 33, [5-[5-[4-chloro-3-(cyclopropylcarbamoyl)phenyl]isoxazol-3-yl]-1-methyl-4-(trifluoromethyl)pyrazol-3-yl] 1,1,1,2,3,3,3-heptafluoropropane-2-sulfonate]
≥ 80%: percent control (mortality, anti-feedant effect or growth inhibition) at 200 ppm (Spodoptera littoralis) | mortality at 200 ppm (Plutella xylostella) | mortality at 200 ppm (Diabrotica Balteata) | mortality at 200 ppm (Thrips tabaci) | mortality at 200 ppm (Tetranychus urticae) | mortality at 200 ppm (Euschistus heros) | mortality at 200 ppm (Myzus persicae)

CN(C(=O)c1cc(-c2cc(-c3c(C(F)(F)F)c(OS(=O)(=O)C(F)(C(F)(F)F)C(F)(F)F)nn3C)no2)ccc1Cl)C1CC1 [Compound 34, [5-[5-[4-chloro-3-[cyclopropyl(methyl)carbamoyl]phenyl]isoxazol-3-yl]-1-methyl-4-(trifluoromethyl)pyrazol-3-yl] 1,1,1,2,3,3,3-heptafluoropropane-2-sulfonate]
≥ 80%: percent control (mortality, anti-feedant effect or growth inhibition) at 200 ppm (Spodoptera littoralis) | mortality at 200 ppm (Plutella xylostella) | mortality at 200 ppm (Diabrotica Balteata) | mortality at 200 ppm (Thrips tabaci) | mortality at 200 ppm (Tetranychus urticae) | mortality at 200 ppm (Euschistus heros) | mortality at 200 ppm (Myzus persicae)

CCN(C(=O)c1cc(-c2cc(-c3c(C(F)(F)F)c(OS(=O)(=O)C(F)(C(F)(F)F)C(F)(F)F)nn3C)no2)ccc1Cl)C1CC1 [Compound 35, [5-[5-[4-chloro-3-[cyclopropyl(ethyl)carbamoyl]phenyl]isoxazol-3-yl]-1-methyl-4-(trifluoromethyl)pyrazol-3-yl] 1,1,1,2,3,3,3-heptafluoropropane-2-sulfonate]
≥ 80%: percent control (mortality, anti-feedant effect or growth inhibition) at 200 ppm (Spodoptera littoralis) | mortality at 200 ppm (Plutella xylostella) | mortality at 200 ppm (Diabrotica Balteata) | mortality at 200 ppm (Thrips tabaci) | mortality at 200 ppm (Tetranychus urticae) | mortality at 200 ppm (Euschistus heros) | mortality at 200 ppm (Myzus persicae)

CCN(C(=O)c1cc(-c2cc(-c3c(C(F)(F)F)c(OS(=O)(=O)C(F)(C(F)(F)F)C(F)(F)F)nn3C)no2)ccc1Cl)C1(C#N)CC1 [Compound 38, [5-[5-[4-chloro-3-[(1-cyanocyclopropyl)-ethyl-carbamoyl]phenyl]isoxazol-3-yl]-1-methyl-4-(trifluoromethyl)pyrazol-3-yl] 1,1,1,2,3,3,3-heptafluoropropane-2-sulfonate]
≥ 80%: percent control (mortality, anti-feedant effect or growth inhibition) at 200 ppm (Spodoptera littoralis) | mortality at 200 ppm (Plutella xylostella) | mortality at 200 ppm (Tetranychus urticae) | mortality at 200 ppm (Euschistus heros) | mortality at 200 ppm (Myzus persicae)
